Test results from patent US11109593B2, “Isoxazolin-5-one derivative and herbicide containing same as active ingredient” (HOKKO CHEMICAL INDUSTRY CO., LTD., priority 2017, dated 2021).

Test system: Echinochloa crus-galli
Experiment: Test Example 4: herbicidal effect test by treatment of leave and stem in dry field farming (seven days after seeding)
Format: in vivo
Settings: 120 g/10a active ingredient; emulsion sprayed seven days after seeding; evaluated 14 days after treatment
Description: (§1) This test was conducted in a double system per one agent solution concentration area, and the herbicidal rates (%) were determined by the following equation (Math. 1) on 14 days after the treatment with the agents. Herbicidal Rate (%)={1-(Average Dry Weight (g) of Plant of Treated Area)/(Average Dry Weight (g) of Plant of Untreated Area)}×100 [Math. 1]
(§2) Herbicidal Effect Test by Treatment of Leave and Stem in Dry Field Farming
(§3) Pots with a size of 36 cm^2 were filled with a dry field farming soil (alluvium). The soil of the top layer of 1 cm and seeds of weeds, namely southern crabgrass, Echinochloa crus-galli, Chenopodium album and Amaranthus viridis, 20 seeds each, were evenly mixed, and the top layer was gently pressed. Emulsions prepared using the compounds in Table 6 below according to Formulation Example 5 were diluted with water seven days after seeding, and the water-diluted agent solutions were sprayed to the soil surfaces at a ratio of 100 liters per 10 ares. The converted amount of the applied active ingredient corresponded to 120 g per 10 ares. The herbicidal effects were evaluated by the same standard as that in Test Example 1 on 14 days after the treatment with the agents. […] The compound numbers in Table 6 are the same as those in Table 1 and Table 2 above.

Structure (SMILES)	herbicidal effect (herbicidal rate), Echinochloa crus-galli
CCC(C)n1oc(=O)c(Cc2ccccc2N(C(=O)C2CCCO2)S(=O)(=O)C(F)(F)F)c1C (centres unmarked) [Compound 1-522]	90%
Cc1c(Cc2ccccc2N(S(=O)(=O)C(F)(F)F)S(=O)(=O)C(F)(F)F)c(=O)on1Cc1ccc(F)cc1 [Compound 1-1014]	70%

Test system: Chenopodium album
Experiment: as above
Format: in vivo
Settings: 120 g/10a active ingredient; emulsion sprayed seven days after seeding; evaluated 14 days after treatment
Description: as §1, §2, §3

Structure (SMILES)	herbicidal effect (herbicidal rate), Chenopodium album
CCC(C)n1oc(=O)c(Cc2ccccc2N(C(=O)C2CCCO2)S(=O)(=O)C(F)(F)F)c1C (centres unmarked) [Compound 1-522]	40%
Cc1c(Cc2ccccc2N(S(=O)(=O)C(F)(F)F)S(=O)(=O)C(F)(F)F)c(=O)on1Cc1ccc(F)cc1 [Compound 1-1014]	50%

Test system: southern crabgrass
Experiment: as above
Format: in vivo
Settings: 120 g/10a active ingredient; emulsion sprayed seven days after seeding; evaluated 14 days after treatment
Description: as §1, §2, §3

Structure (SMILES)	herbicidal effect (herbicidal rate), southern crabgrass
CCC(C)n1oc(=O)c(Cc2ccccc2N(C(=O)C2CCCO2)S(=O)(=O)C(F)(F)F)c1C (centres unmarked) [Compound 1-522]	90%
Cc1c(Cc2ccccc2N(S(=O)(=O)C(F)(F)F)S(=O)(=O)C(F)(F)F)c(=O)on1Cc1ccc(F)cc1 [Compound 1-1014]	40%

Test system: Amaranthus viridis
Experiment: as above
Format: in vivo
Settings: 120 g/10a active ingredient; emulsion sprayed seven days after seeding; evaluated 14 days after treatment
Description: as §1, §2, §3

Structure (SMILES)	herbicidal effect (herbicidal rate), Amaranthus viridis
CCC(C)n1oc(=O)c(Cc2ccccc2N(C(=O)C2CCCO2)S(=O)(=O)C(F)(F)F)c1C (centres unmarked) [Compound 1-522]	40%
Cc1c(Cc2ccccc2N(S(=O)(=O)C(F)(F)F)S(=O)(=O)C(F)(F)F)c(=O)on1Cc1ccc(F)cc1 [Compound 1-1014]	40%

Test system: Echinochloa crus-galli
Experiment: Test Example 1: herbicidal effect test by treatment of rice paddy soil (immediately after seeding)
Format: in vivo
Settings: 120 g/10a active ingredient, dry weight vs untreated area, 14 days after treatment
Outline: (§4)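 Puddled, fertilized (N:P:K=17:17:17) paddy soil in Wagner pots; seeds sown 0–1 cm deep, flooded to about 3 cm. Emulsifiable formulations diluted in water and dropped into the water immediately after seeding at 120 g active ingredient per 10 ares; greenhouse. Herbicidal rate from dry weight vs untreated at 14 days.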

Structure (SMILES)	Herbicidal rate (%) Echinochloa crus-galli
CCC(C)n1oc(=O)c(Cc2ccccc2N(C(=O)C2CCCO2)S(=O)(=O)C(F)(F)F)c1C (centres unmarked) [Compound 1-522]	90%
Cc1c(Cc2ccccc2N(S(=O)(=O)C(F)(F)F)S(=O)(=O)C(F)(F)F)c(=O)on1Cc1ccc(F)cc1 [Compound 1-1014]	90%

Test system: broad leaf weeds (Lindernia pyxidaria and Monochoria vaginalis)
Experiment: as above
Format: in vivo
Settings: Lindernia pyxidaria, 120 g/10a active ingredient, dry weight vs untreated area, 14 days after treatment
Outline: as §4

Structure (SMILES)	Herbicidal rate (%) Lindernia pyxidaria
CCC(C)n1oc(=O)c(Cc2ccccc2N(C(=O)C2CCCO2)S(=O)(=O)C(F)(F)F)c1C (centres unmarked) [Compound 1-522]	90%
Cc1c(Cc2ccccc2N(S(=O)(=O)C(F)(F)F)S(=O)(=O)C(F)(F)F)c(=O)on1Cc1ccc(F)cc1 [Compound 1-1014]	90%

Same assay, conditions: Monochoria vaginalis, 120 g/10a active ingredient, dry weight vs untreated area, 14 days after treatment

Structure (SMILES)	Herbicidal rate (%) Monochoria vaginalis
CCC(C)n1oc(=O)c(Cc2ccccc2N(C(=O)C2CCCO2)S(=O)(=O)C(F)(F)F)c1C (centres unmarked) [Compound 1-522]	90%
Cc1c(Cc2ccccc2N(S(=O)(=O)C(F)(F)F)S(=O)(=O)C(F)(F)F)c(=O)on1Cc1ccc(F)cc1 [Compound 1-1014]	100%

Test system: Scirpus juncoides
Experiment: as above
Format: in vivo
Settings: 120 g/10a active ingredient, dry weight vs untreated area, 14 days after treatment
Outline: as §4

Structure (SMILES)	Herbicidal rate (%) Scirpus juncoides
CCC(C)n1oc(=O)c(Cc2ccccc2N(C(=O)C2CCCO2)S(=O)(=O)C(F)(F)F)c1C (centres unmarked) [Compound 1-522]	90%
Cc1c(Cc2ccccc2N(S(=O)(=O)C(F)(F)F)S(=O)(=O)C(F)(F)F)c(=O)on1Cc1ccc(F)cc1 [Compound 1-1014]	90%

Test system: Echinochloa crus-galli
Experiment: Test Example 3: herbicidal effect test by treatment of dry field farming soil (one day after seeding)
Format: in vivo
Settings: 120 g/10a active ingredient, evaluated 14 days after treatment
Outline: (§5)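 Seeds (20 each) mixed into top 1 cm of alluvium in pots, surface pressed. One day later, diluted emulsion sprayed onto soil, 100 L/10 a, 120 g a.i./10 a. Dry weight at 14 d vs untreated gave % herbicidal rate; n=2.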

Structure (SMILES)	herbicidal rate, Echinochloa crus-galli
CCC(C)n1oc(=O)c(Cc2ccccc2N(C(=O)C2CCCO2)S(=O)(=O)C(F)(F)F)c1C (centres unmarked) [Compound 1-522]	90%
Cc1c(Cc2ccccc2N(S(=O)(=O)C(F)(F)F)S(=O)(=O)C(F)(F)F)c(=O)on1Cc1ccc(F)cc1 [Compound 1-1014]	90%

Test system: Chenopodium album
Experiment: as above
Format: in vivo
Settings: 120 g/10a active ingredient, evaluated 14 days after treatment
Outline: as §5

Structure (SMILES)	herbicidal rate, Chenopodium album
CCC(C)n1oc(=O)c(Cc2ccccc2N(C(=O)C2CCCO2)S(=O)(=O)C(F)(F)F)c1C (centres unmarked) [Compound 1-522]	90%
Cc1c(Cc2ccccc2N(S(=O)(=O)C(F)(F)F)S(=O)(=O)C(F)(F)F)c(=O)on1Cc1ccc(F)cc1 [Compound 1-1014]	40%

Test system: southern crabgrass
Experiment: as above
Format: in vivo
Settings: 120 g/10a active ingredient, evaluated 14 days after treatment
Outline: as §5

Structure (SMILES)	herbicidal rate, southern crabgrass
CCC(C)n1oc(=O)c(Cc2ccccc2N(C(=O)C2CCCO2)S(=O)(=O)C(F)(F)F)c1C (centres unmarked) [Compound 1-522]	90%
Cc1c(Cc2ccccc2N(S(=O)(=O)C(F)(F)F)S(=O)(=O)C(F)(F)F)c(=O)on1Cc1ccc(F)cc1 [Compound 1-1014]	70%

Test system: Amaranthus viridis
Experiment: as above
Format: in vivo
Settings: 120 g/10a active ingredient, evaluated 14 days after treatment
Outline: as §5

Structure (SMILES)	herbicidal rate, Amaranthus viridis
CCC(C)n1oc(=O)c(Cc2ccccc2N(C(=O)C2CCCO2)S(=O)(=O)C(F)(F)F)c1C (centres unmarked) [Compound 1-522]	90%
Cc1c(Cc2ccccc2N(S(=O)(=O)C(F)(F)F)S(=O)(=O)C(F)(F)F)c(=O)on1Cc1ccc(F)cc1 [Compound 1-1014]	40%

Test system: Echinochloa crus-galli
Experiment: Test Example 2: herbicidal effect test by treatment during growing period in paddy rice cultivation (seven days after seeding)
Format: in vivo
Settings: 120 g/10a active ingredient, assessed 14 days after treatment, dry weight vs untreated area
Outline: (§6)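 Herbicidal rate = (1 − treated/untreated mean dry weight) × 100, scored 14 days after application, two replicates per rate. Treatment: diluted emulsion dropped onto paddy water seven days after sowing, 120 g active ingredient per 10 ares, in a glass greenhouse.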

Structure (SMILES)	Herbicidal rate (%) Echinochloa crus-galli
CCC(C)n1oc(=O)c(Cc2ccccc2N(C(=O)C2CCCO2)S(=O)(=O)C(F)(F)F)c1C (centres unmarked) [Compound 1-522]	90%
Cc1c(Cc2ccccc2N(S(=O)(=O)C(F)(F)F)S(=O)(=O)C(F)(F)F)c(=O)on1Cc1ccc(F)cc1 [Compound 1-1014]	90%

Test system: broad leaf weeds (Lindernia pyxidaria and Monochoria vaginalis)
Experiment: as above
Format: in vivo
Settings: Lindernia pyxidaria, 120 g/10a active ingredient, assessed 14 days after treatment, dry weight vs untreated area
Outline: as §6

Structure (SMILES)	Herbicidal rate (%) Lindernia pyxidaria
CCC(C)n1oc(=O)c(Cc2ccccc2N(C(=O)C2CCCO2)S(=O)(=O)C(F)(F)F)c1C (centres unmarked) [Compound 1-522]	90%
Cc1c(Cc2ccccc2N(S(=O)(=O)C(F)(F)F)S(=O)(=O)C(F)(F)F)c(=O)on1Cc1ccc(F)cc1 [Compound 1-1014]	80%

Same assay, conditions: Monochoria vaginalis, 120 g/10a active ingredient, assessed 14 days after treatment, dry weight vs untreated area

Structure (SMILES)	Herbicidal rate (%) Monochoria vaginalis
CCC(C)n1oc(=O)c(Cc2ccccc2N(C(=O)C2CCCO2)S(=O)(=O)C(F)(F)F)c1C (centres unmarked) [Compound 1-522]	90%
Cc1c(Cc2ccccc2N(S(=O)(=O)C(F)(F)F)S(=O)(=O)C(F)(F)F)c(=O)on1Cc1ccc(F)cc1 [Compound 1-1014]	80%

Test system: Scirpus juncoides
Experiment: as above
Format: in vivo
Settings: 120 g/10a active ingredient, assessed 14 days after treatment, dry weight vs untreated area
Outline: as §6

Structure (SMILES)	Herbicidal rate (%) Scirpus juncoides
CCC(C)n1oc(=O)c(Cc2ccccc2N(C(=O)C2CCCO2)S(=O)(=O)C(F)(F)F)c1C (centres unmarked) [Compound 1-522]	90%
Cc1c(Cc2ccccc2N(S(=O)(=O)C(F)(F)F)S(=O)(=O)C(F)(F)F)c(=O)on1Cc1ccc(F)cc1 [Compound 1-1014]	90%
